According to ChEMBL document CHEMBL1201862, “PubChem BioAssay data set” (2004):
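Grown in 96-well plates, cells were treated for 48 hours with each compound at five concentrations. Insufficient inhibition: endpoint recorded as highest concentration tested. GI50 marks 50% less growth.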 Active and inactive are the calls of the source. Cut-off read from the data, not from the text of the source: active = GI50 up to about 1.1 µM and inactive = higher.

Columns and labels:
Assay in all cases: DTP human tumour cell line panel, 48 h
[1] = test system: BT-549
[2] = test system: CCRF-CEM
[3] = test system: EKVX
[4] = test system: HCT-116
[5] = test system: K562
[6] = test system: M14
[7] = test system: MCF7
[8] = test system: MDA-MB-231
[9] = test system: NCI-H460
[10] = test system: NCI-H522
[11] = test system: OVCAR-4
[12] = test system: PC-3
[13] = test system: SK-MEL-5
[14] = test system: SW-620
[15] = test system: TK-10
[16] = test system: UACC-257
[17] = test system: UACC-62
[18] = test system: T47D
[19] = test system: CAKI-1
[20] = test system: MDA-N

| SMILES | GI50 [1] | GI50 [2] | GI50 [3] | GI50 [4] | GI50 [5] | GI50 [6] | GI50 [7] | GI50 [8] | GI50 [9] | GI50 [10] | GI50 [11] | GI50 [12] | GI50 [13] | GI50 [14] | GI50 [15] | GI50 [16] | GI50 [17] | GI50 [18] | GI50 [19] | GI50 [20] |
| --- | --- | --- | --- | --- | --- | --- | --- | --- | --- | --- | --- | --- | --- | --- | --- | --- | --- | --- | --- | --- |
| O=C(CNc1ccccc1Cl)Nn1c(-c2ccccc2)nc2ccccc2c1=O | 12.8 µM (inactive) | 13.4 µM (inactive) | 18.6 µM (inactive) | 25.2 µM (inactive) | 23.2 µM (inactive) | > 10 µM (inactive) | 14.8 µM (inactive) | > 10 µM (inactive) | 78.5 µM (inactive) | > 10 µM (inactive) | 26.4 µM (inactive) | 20.7 µM (inactive) | 10.2 µM (inactive) | 19.8 µM (inactive) | 44 µM (inactive) | 50.6 µM (inactive) | > 10 µM (inactive) |  |  |  |
| O=C(OCc1ccccc1CN1CCOCC1)c1ccc(Br)cc1 | 74.8 µM (inactive) |  | 55.1 µM (inactive) | 32.6 µM (inactive) | 0.0209 µM (active) | 52.8 µM (inactive) | 39.6 µM (inactive) | 71.4 µM (inactive) | > 100 µM (inactive) | 28.7 µM (inactive) | 43.5 µM (inactive) | 85.5 µM (inactive) | 12.2 µM (inactive) | > 100 µM (inactive) | > 100 µM (inactive) | 43.2 µM (inactive) | 55 µM (inactive) | 43.5 µM (inactive) |  |  |
| C=C(C)C1CC=C(C)C(=O)C1 (configuration not stated) [CARVONE] |  | > 100 µM (inactive) | > 100 µM (inactive) | > 100 µM (inactive) | > 100 µM (inactive) | > 100 µM (inactive) | > 100 µM (inactive) | > 100 µM (inactive) | > 100 µM (inactive) | > 100 µM (inactive) | > 100 µM (inactive) | > 100 µM (inactive) | > 100 µM (inactive) | > 100 µM (inactive) | > 100 µM (inactive) | > 100 µM (inactive) |  | > 100 µM (inactive) | > 100 µM (inactive) | > 100 µM (inactive) |
| O=C(/C=C/c1ccc(Cl)cc1)c1cccs1 |  | 6.61 µM (inactive) | 26.6 µM (inactive) | 14.8 µM (inactive) | 4.03 µM (inactive) | 20.9 µM (inactive) | 3.62 µM (inactive) | 20 µM (inactive) | 18.4 µM (inactive) |  | > 10 µM (inactive) | 18.2 µM (inactive) | 18.2 µM (inactive) | 12.9 µM (inactive) | 20.8 µM (inactive) | 19.6 µM (inactive) | 21 µM (inactive) | 21 µM (inactive) | 24 µM (inactive) | 16.3 µM (inactive) |
| C[C@@H](c1ccccc1)N1CO[C@@]2(C#Cc3ccc4c(c3)OCO4)CCC[C@@H]12 |  | 19.8 µM (inactive) | 20.3 µM (inactive) | 12 µM (inactive) | 13.8 µM (inactive) | 14.8 µM (inactive) | > 100 µM (inactive) | 13.3 µM (inactive) | 13.3 µM (inactive) |  | 13.8 µM (inactive) | 12.4 µM (inactive) | 13.1 µM (inactive) |  | 15.5 µM (inactive) | 17.5 µM (inactive) | > 100 µM (inactive) | 16.4 µM (inactive) | 16.3 µM (inactive) | 17.3 µM (inactive) |
| Cn1c2ccccc2c(=O)c2ccc(Cl)cc21 |  | > 10 µM (inactive) | 1.38 µM (inactive) | > 10 µM (inactive) | > 10 µM (inactive) |  | > 10 µM (inactive) |  |  |  | > 10 µM (inactive) | > 10 µM (inactive) | > 10 µM (inactive) | > 10 µM (inactive) | 7.5 µM (inactive) |  | > 10 µM (inactive) | > 10 µM (inactive) |  | > 10 µM (inactive) |
| CCP(=O)(OC)C1=CCN(C(=O)OCC[Si](C)(C)C)CC1 (configuration not stated) |  | > 100 µM (inactive) | > 100 µM (inactive) |  | > 100 µM (inactive) | > 100 µM (inactive) | > 100 µM (inactive) | > 100 µM (inactive) | > 100 µM (inactive) | > 100 µM (inactive) | > 100 µM (inactive) | > 100 µM (inactive) | > 100 µM (inactive) | > 100 µM (inactive) | > 100 µM (inactive) | > 100 µM (inactive) | > 100 µM (inactive) | > 100 µM (inactive) | > 100 µM (inactive) | > 100 µM (inactive) |
| O=C(Cn1c(=O)oc2ccc(C(=O)c3cccc(Cl)c3)cc21)c1ccccc1 | 18.1 µM (inactive) | > 100 µM (inactive) | 30.1 µM (inactive) | > 10 µM (inactive) | 57.8 µM (inactive) | > 100 µM (inactive) | 87.9 µM (inactive) | > 100 µM (inactive) | 41.7 µM (inactive) | > 100 µM (inactive) | 12.8 µM (inactive) | > 100 µM (inactive) | 23.1 µM (inactive) | 65.6 µM (inactive) | > 100 µM (inactive) | 19.5 µM (inactive) | > 100 µM (inactive) | 4.53 µM (inactive) | > 100 µM (inactive) |  |
